Measured values as given in patent US20030095982A1, “Fraction of Cordyceps sinensis and method of isolation thereof” (priority 2001, published 2003).

Key:
[1] = test system: ovalbumin (OA) induced bronchial hyperresponsiveness; experiment: Pulmonary function test, OA induced bronchial hyperresponsiveness in BNR; format: in vivo, brown Norway rats (BNR)
Description: The requirements for animal models include both specificity and the capacity for developing pulmonary histopathological lesions that are similar to those found in the corresponding human disorders. In view of the above considerations, three kinds of animal models were adopted for the experiments used in developing this invention. Two were invasive method and one was non-invasive method. The first and second invasive models were BNR and guinea pig asthma model induced by ovalbumin (OA). Twenty four either BNR (weight ranging from 250˜350 g) or guinea pig (380˜500 g) were divided into three groups. Each group consisted of 8 weight-matched male animals. Both group I and group II BNR were put into a closed chamber (30×30×16 cm plastic box) with two small holes, one serving as a gas inlet and the other as a gas outlet. Two mL of 1% OA was aerosolized by nebulizer and delivered continuously into the closed chamber with a gas delivery flow of 8 l/min. The animal was exposed to OA in the chamber for 10 minutes.
A second sensitization was performed 7 days later using the same procedure. Another 7 days later, a provocation test was performed. To prevent anaphylaxis and possible death, the animals were pretreated with pyrinamine (10 mg/kg) intraperitoneally 30 minutes before the test. For provocation, the BNR inhaled 3 mL of 4% aerosolized OA by nebulizer for 10 minutes in a closed chamber, using the same procedure as for sensitization. Group I BNR or guinea pig were given Cordyceps sinensis active fraction F-4 4 mg/kg intraperitoneally 30 minutes before OA inhalation provocation. Group II control animals were treated in the same way as […], except that they were sensitized and challenged by breathing aerosolized saline instead of OA and without Cordyceps sinensis pretreatment.
In the Cordyceps sinensis treatment study, the protocol is similar to pretreatment except F-4 is administed after OA inhalation provocation.
For the lung function and acetylcholine provocation portion of the study, all animals were anesthetized with sodium pentobarbitone (50 mg/kg intraperitoneally). Jugular vein cannulation (PE-10 polyethylene tube filled with heparin, 1000 iu/mL in normal saline) and tracheostomy were performed. Lung function test was done 24 hours after the OA provocation test. The BNRs or pignea pigs were put in a body box (Model 6 Body Box, Buxco, Troy, N.Y., USA) in a supine position while the mice were put in a body box for mice (Anesthetized Body Box for Mice, Buxco, Troy, N.Y., USA). Gallamine triethiodide (4 mg/kg) was intravenously injected to induce paralysis and inhibit spontaneous breathing. A small animal ventilator set at a tidal volume of 6 mL/kg and a respiratory rate of 60 times/minute for the BNRs, 120 times/minute for the mice was used to ventilate the small animals. All animals were stable without spontaneous breathing 5 minutes after gallamine was given. Pulmonary function tests (PET) as described below were measured at baseline. Therefore, 25, 50, 75 and 100 μg/kg of acetylcholine (Ach) were given intravenously at 30 minute intervals. PETs were done 5 seconds after each dose of acetylcholine. Before each successive dose of Ach, the flow volume loop returned to baseline.
The airway opening pressure (PaO) was measured by a Gould pressure transducer at the tracheotomy. Respiratory flow was measured by a DP-45-14 differential pressure transducer. When tidal breathing was examined, 3-layer 325-mesh wire screen was used to measure the pressure difference. When a maximal forced expiratory maneuver (MFEM) was performed, a 6-layer 325-mesh wire screen was used to measure the pressure difference.
For the MFEM, the lungs were inflated to total lung capacity 9TLC, lung volume at PaO=35 cm H2O) 3 times; the inflation was regulated by a solenoid valve. At peak volume during the third inflation, the inflation valve was shut off and another solenoid valve was opened immediately for deflation. […]

[2] = test system: IFNγ (Th-1 related), IL-4, IL-5, IL-10 (Th-2 related) and iNOS mRNA; experiment: Cytokine and iNOS mRNA in lung tissue by RT-PCR; format: in vivo, brown Norway rats (BNR); settings: prophylactic and therapeutic treatment, OA asthma model
Method: The in vivo role of F-4 and F8 of Th1/Th2 cytokines by […] mRNA in lung tissue and nuclear factor (NF)κ B activity using an electromobility shift assay (EMSA)
Total RNA was extracted from lung tissue samples by a method described previously and RT-PCR was performed using a RT-PCR kit (Clontech, USA). The following T-cell related cytokines were evaluated by measuring their mRNA expression: IFNγ (Th-1 related) and IL-4, IL-5 and IL-10 (all Th-2 related) and inducible nitric oxide synthase (iNOS).
Briefly, 2 μg of RNA in a 25 μl volume was first primed with 2 μl oligo-(dT)18 primer, 20 μM, at 70° C. for 2 min and then kept on ice for 5 min. after the reaction, a mixture containing the following: 8 μl of 5×reaction buffer; 2 μl, dNTP mix […] (each); 1 μl recombinant Rnase inhibitor, 40 units/μ1; and 2 μl MMLV reverse transcriptase, 200 units/μ1, was added to synthesize cDNA. cDNA was amplified by 40 PCR cycles; each consisting of a denaturation step (94° C. for 1 min), an annealing step (65˜55° C. for 1 min, 0.5° C./cycle touch down, 55° C. for 19 cycles), and an extension step (72° C. for 1 min). During the last cycle the 72° C. step was extended to 5 min. The PCR product was analyzed on 2% agarose gel electrophoresis. The identity of each cytokine cDNA was determined by the size of the PCR product obtained by electrophoresis, and confirmed by DNA sequencing of the PCR products. […]

[3] = baseline, 4 mg/Kg intraperitoneally 30 minutes before OA inhalation provocation, mean±SD
[4] = pretreated before OA inhalation provocation (group I) vs OA-treated (group II), Ach doses higher than 25 μg/kg

CC(C)[C@@H](C)C=C[C@@H](C)[C@H]1CC[C@H]2C3=C[C@@H](O)[C@@]4(O)C[C@@H](O)CC[C@]4(C)[C@H]3CC[C@]12C [F8, (24R)-ergosta-7,22-diene-3β, 5α, 6β,-triol]
Cdyn (total dynamic lung compliance) [1, 3]: 0.53 ± 0.05 mL/cm H2O | MFEF 25% [1, 3]: 35.3 ± 4.5 mL/s | MFEF 50% [1, 3]: 75.7 ± 4.6 mL/s | MFEF 75% [1, 3]: 101.5 ± 4.9 mL/s | PaO (airway opening pressure at tidal breathing) [1, 3]: 4.3 ± 0.6 cmH2O | Peak flow [1, 3]: 105.6 ± 4.7 mL/s | Total lung capacity [1, 3]: 15.4 ± 1.5 mL | percentage of baseline MFEF 25% TLC, Ach dose response [1, 4]: group II was significantly lower then group I | percentage of baseline MFEF 50% TLC, Ach dose response [1, 4]: group II was significantly lower then group I | PD20 Ach (dose of Ach producing a 20% drop) for MFEF 50% and MFEF 25% ([1]; treatment study (administered after OA inhalation provocation), group I vs OA-treated group II): significantly (p<0.001) lower in group II than in the other 2 groups | Th1 cytokines expression [2]: enhance Th1 cytokines expression | Th2 cytokines and iNOS gene mRNA expression [2]: decrease Th2 cytokines and INOS gene mRNA expression
